Experimental data published in PMC5589893, “Identification of Aspergillus fumigatus UDP-Galactopyranose Mutase Inhibitors” (Scientific Reports, 2017).

Columns and labels:
[1] = test system: A. fumigatus; assay: Congo red susceptibility assay; format: cell-based, Aspergillus fumigatus; settings: 100 µM compound with congo red (0.5 and 1 mg/mL), 48 h, 37 °C
[2] = test system: A. fumigatus; assay: Toxicity study, growth in PDA medium at 37 °C; format: cell-based, Aspergillus fumigatus; settings: for A. fumigatus toxicity: 1000 µM; for A. fumigatus toxicity under optimal growth conditions: 600 and 1000 µM, 24-48 h
[3] = target: T1, A. fumigatus UGM (Aspergillus fumigatus, UniProt Q4W1X2); assay: biochemical; format: binding; settings: 20 µM compound, 2% DMSO, 30 nM ADP-TAMRA, normalized to negative control; read-out: Normalized anisotropy (%)
T1 construct: 8x His-tag (TEV-cleavable) (cleaved yes); made in house; host or cells: E. coli BL21 Turbo (DE3)
T1 sequence (Q4W1X2 whole entry): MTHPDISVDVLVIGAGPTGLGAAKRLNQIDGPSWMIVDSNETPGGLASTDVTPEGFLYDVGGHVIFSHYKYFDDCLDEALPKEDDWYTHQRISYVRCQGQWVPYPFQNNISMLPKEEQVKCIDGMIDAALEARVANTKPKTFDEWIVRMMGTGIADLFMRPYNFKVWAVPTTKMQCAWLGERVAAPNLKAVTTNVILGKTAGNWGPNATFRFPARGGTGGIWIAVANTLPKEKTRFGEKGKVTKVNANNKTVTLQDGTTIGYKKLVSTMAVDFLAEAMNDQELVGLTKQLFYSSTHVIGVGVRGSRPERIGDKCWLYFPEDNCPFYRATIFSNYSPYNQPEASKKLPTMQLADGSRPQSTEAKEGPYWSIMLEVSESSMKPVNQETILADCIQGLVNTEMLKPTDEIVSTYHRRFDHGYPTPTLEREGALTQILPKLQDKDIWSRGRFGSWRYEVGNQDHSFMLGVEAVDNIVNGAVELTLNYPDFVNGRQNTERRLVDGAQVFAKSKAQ
Protocol: High-throughput screening of the Spectrum Collection library using the FP assay with the ADP-TAMRA[22] probe was performed at the Virginia Tech Center for Drug Discovery Screening Laboratory. 384 well plates (Greiner 784900) were used and the reaction volume was 15 µL using 25 mM HEPES buffer (pH 7.0). For the screening, 30 nM of ADP-TAMRA with 6.7 µM UGM (based on the Bradford assay) and 20 µM of library compound were used, with a final DMSO concentration of 2%. Fluorescence polarization measurements were performed with excitation at 544 nm and emission at 584 nm, using a wavelength cutoff of 570 nm. Anisotropy measurements were performed after 30 and 120 minutes of incubation at 25 °C. Anisotropy values were normalized to the values obtained in the negative control sample: UGM, ADP-TAMRA, and DMSO (high anisotropy values). The positive control consisted of ADP-TAMRA and DMSO (low anisotropy values). The Z prime (Z′) value was determined using equation (1) where, σN,P and μN,P represent the standard deviation and the mean value the of the negative and positive controls respectively.1 Z′=1−3(σN+σP)/|μN−μP|

[4] = test system: UDP-glucuronosyltransferases; settings: cited from earlier work
[5] = test system: S. aureus strains; settings: cited from earlier work
[6] = test system: A. fumigatus; assay: Thermotolerance study, growth in PDA at 50 °C; format: cell-based, Aspergillus fumigatus; settings: 1000 µM compound, 48 h at 50 °C, vs reference
[7] = target: T1, A. fumigatus UGM; assay: biochemical; format: binding; settings: for T•∆S / ∆G / ∆H: ITC, 25 °C
Protocol: Binding of inhibitors to UGM was measured with an Auto-ITC 200 ITC instrument. UGM was dialyzed in 50 mM potassium phosphate buffer, pH 7.0, for 2 h at 4 °C. In all cases, ligands were dissolved in dialysis buffer and protein and ligand were filtered with a […] membrane prior to loading. […] Inhibitor concentration in the syringe was 2 mM (2% DMSO), except for chrysin where the concentration was 600 µM (4% DMSO). […] Thermodynamic parameters were determined from ITC results using Microcal Origin version 7.0 (OriginLab) with the “ITC custom” add-on installed.

[8] = target: T1, A. fumigatus UGM; assay: biochemical; format: biochemical; settings: for Inhibition of product formation, concentration dependence: UPLC at 20 and 200 µM compound, 2% DMSO; for Concentration effect: inhibition at 200 µM vs 20 µM compound, UPLC; for inhibition at 200 µM: read-out: Inhibition > 50 %
Protocol: (§1) The reaction was quenched with the addition of 70 µL acetonitrile. […] Samples were run at a flow rate of 0.5 mL/min for 5 min. IC50 was also determined by following NADPH oxidation at 340 nm. […] Data was analyzed using KaleidaGraph software. […] Global fitting was performed with Graphpad Prims 6 software (La Jolla, CA).

[9] = target: T2, UGM (Aspergillus fumigatus, UniProt Q4W1X2); assay: ThermoFAD melting temperature assay; format: binding; settings: 20, 100 and 1000 µM compound, 2% DMSO, 1 mg/mL UGM
T2 construct: 8x His-tag (TEV-cleavable) (cleaved yes); made in house; host or cells: E. coli BL21 Turbo (DE3)
T2 sequence (Q4W1X2 whole entry): as above
Protocol: The melting temperature[25] of UGM was determined by measuring the FAD fluorescence as a function of temperature (20–90 °C, 1 °C step) following the reported ThermoFAD procedure. The reaction mix consisted of 20 µL of 1 mg/mL UGM, 2% DMSO in 50 mM potassium phosphate buffer, pH 7.0. As a reference and positive control, the Tm was calculated in the presence DMSO and UDP (10 mM). Different concentrations of inhibitors were added in the range of 0–1 mM at a final DMSO concentration of 2% in the above-mentioned buffer. All experiments were done in triplicate.

[10] = target: T1, A. fumigatus UGM; assay: biochemical; format: biochemical; settings: for Type of Inhibition: NADPH oxidation at different concentrations of inhibitor and NADPH; for Inhibition of NADPH oxidation: absence of UDP-Galf
Protocol: as §1

| SMILES | Growth decrease with congo red [1] | A. fumigatus toxicity [2] | A. fumigatus toxicity under optimal growth conditions [2] | remaining activity at 20 µM [3] | Effect on UDP-glucuronosyltransferases [4] | Biofilm formation inhibition [5] | Delay in colony development [6] | Kd [7] | T•∆S [7] | ∆G [7] | ∆H [7] | Inhibition of product formation, concentration dependence [8] | Concentration effect [8] | inhibition at 200 µM [8] | Increase of Tm of UGM [9] | Type of Inhibition [10] | Type of Inhibition ([10]; listed as (2S)-Hesperetin) | Inhibition of NADPH oxidation [10] |
| --- | --- | --- | --- | --- | --- | --- | --- | --- | --- | --- | --- | --- | --- | --- | --- | --- | --- | --- |
| COc1ccc([C@@H]2CC(=O)c3c(O)cc(O)cc3O2)cc1O [(2S)-hesperetin] | ~ 50% | no A. fumigatus toxicity | not toxic | 17% | inhibitory effect | > 70% | ~ 50% | 31 ± 6 µM | 2.1 ± 0.2 kcal/mol | -6.1 ± 0.4 kcal/mol | -4.1 ± 0.4 kcal/mol | concentration dependent potency | + | > 50% | ~ 2.7 °C | Competitive (NADPH) | competitive against NADPH | inhibited NADPH oxidation |
| O=C1C[C@@H](c2ccc(O)cc2)Oc2cc(O)cc(O)c21 [(2S)-naringenin] | ~ 30% | no A. fumigatus toxicity | not toxic | 23% | inhibitory effect | – | ~ 30% | 65 ± 13 µM | 0.9 ± 0.3 kcal/mol | -5.7 ± 1.0 kcal/mol | -4.8 ± 1.0 kcal/mol | concentration dependent potency | + | > 50% | ~ 2.7 °C | competitive against NADPH | – | inhibited NADPH oxidation |
